# Reference: patent US20220088042A1, “COMBINATION THERAPY INCLUDING SAPC-DOPS FOR THE TREATMENT OF PANCREATIC CANCER” (priority 2016, published 2022)
# Key:
# [1] = tested on: AsPC-1 cells; assay: Surface PS (annexin V-APC) and TUNEL apoptosis stain, AsPC-1 (FIG. 3A); format: cell-based, human; details: for TUNEL positive: 24 h (CTL=0.3)
# Protocol: (§1) FIG. 3. GEM exposure triggers PS externalization in pancreatic tumor cells. AsPC-1 (A) and Mia-PaCa-2 (B) cells were treated with varying doses of GEM for 24 h, TUNEL apoptosis stain was performed after surface PS staining with annexin V-APC. The overlay histograms show TUNEL-negative (non-apoptotic) cells. TUNEL positive [AsPC-1: CTL=0.3; GEM 10 nM=2.5; GEM 100 nM=4.6]; [MIA-PaCa-2: CTL=3.6; GEM 1 μM=21].
# (§2) Importantly, in low surface PS cells a clear increase was evident using sub-toxic concentrations of GEM that caused <10% apoptosis.
# (§3) Various cell types were analyzed for surface PS exposure by flow cytometry with annexin V-FTIC. Involvement of flippases in the regulation of surface PS exposure was analyzed by flippase activity assay. Total cellular PS was quantified by TLC separation of phospholipids and estimation of PS phosphorous. Orthotopic PDAC tumors were established by injecting human or murine PDAC cells into animal pancreas. In vivo bioluminescence and fluorescence imaging were performed to monitor tumor targeting and growth. The molecular mechanisms underlying the induction of apoptosis by SapC-DOPS were evaluated in cultured PDAC cells through measurements of cell viability, TUNEL, and flow cytometric DNA fragmentation.
# [2] = tested on: PDAC cells; assay: Surface PS exposure by flow cytometry with annexin V; format: cell-based; details: chemotherapy treatment of PDAC cells
# Protocol: as §3
# [3] = tested on: MIA PaCa-2 human pancreas tumor xenograft; assay: MIA PaCa-2 human pancreas tumor xenograft model (Example 3); format: in vivo; details: for Day 35 TW (mg) ± SEM: Day 35 mean tumor weight, Q3Dx4
# Protocol: SapC-DOPS was received from Bexion Pharmaceuticals, Inc. and were stored at […] until use. Separate aliquoted vials of SapC-DOPS for the 7.3 mg/kg dose were received. Separate aliquoted vials of vehicle were received, which contained DOPS and no SapC. Each vial was resuspended in 1.2 ml of sterile water for injection (Lot #JPJ551, 13/Braun Medical, Inc., Irvine Calif.). Once formulated, SapC-DOPS was delivered at a 10 ml/kg dose volume. SapC-DOPS and vehicle were formulated fresh daily and administered immediately after preparation.
# Gemcitabine (Lot #A735891A) was manufactured by Eli Lilly and Co. (Indianapolis, Ind.) and diluted in a 0.9% NaCl solution (B. Braun Medical, Inc., Irvine, Calif., Lot #J0K465) to a concentration of 4 mg/ml to deliver a 40 mg/kg dose at a 10 ml/kg dose volume. All preparations were made fresh prior to their administration.
# The MIA Paca-2 human pancreas tumor cell line was received from American Type Culture Collection (ATCC, Manassas, Va.). Cultures were maintained in RPMI-1640 (Hyclone, Logan, Utah) supplemented with 5% fetal bovine serum, and housed in a 5% CO2 atmosphere. The cultures were expanded in tissue culture flasks at a 1:4 split ratio until a sufficient amount of cells were harvested.
# Female NCR nude mice (CrTac:NCR-Foxn1^nu) were supplied by Taconic (Germantown, N.Y.). Mice were received at four weeks' of age, 12-15 g in weight. All mice were acclimated for seven days prior to handling. The mice were housed in microisolator cages (Lab Products, Seaford, Del.) and maintained under specific pathogen-free conditions. The mice were fed PicoLab® irradiated mouse chow (Lab Diet, Richmond, Ind.) and autoclaved water was freely available. […]
# Five days following inoculation, tumors were measured using calipers and tumor weight was calculated using the animal study management software, Study Director V. 1.7.54 k (Study Log)^1, Thirty mice with tumor sizes of 105-158 mg were pair-matched into three groups of ten mice each (Day 1). Body weights were recorded when the mice were pair-matched and were taken twice weekly thereafter in conjunction with tumor measurements. […]
# On Day 35, tumors were collected from two randomly selected mice per group. […] The lungs were fixed in formalin (Lot #4117, Azer Scientific, Morgantown, Pa.) and sent to the Mayo Clinic Histology (Scottsdale, Ariz.) to be paraffin blocked process through H&E. The lungs were analyzed by a pathologist at Mayo Clinic with emphasis on evidence of granuloma on the lungs.
# Mean tumor growth inhibition (TGI) was calculated utilizing the following formula (any tumors that regressed were not used in calculations): […]
# The mean tumor shrinkage of each group was calculated and reported. […]
# [4] = tested on: MIA-PaCa-2 cells; assay: Surface PS (annexin V-APC) and TUNEL apoptosis stain, MIA-PaCa-2 (FIG. 3B); format: cell-based, human
# Protocol: as §1, §2, §3
smiles,measurement,setting,value
Nc1ccn([C@@H]2O[C@H](CO)[C@@H](O)C2(F)F)c(=O)n1 [Gemcitabine],external PS in viable cells,"[1]; 24 h, varying doses, relatively low surface PS cell line",dose-dependent increase
same,TUNEL positive,[1]; GEM 10 nM,2.5
same,TUNEL positive,[1]; GEM 100 nM,4.6
same,apoptosis,[1]; sub-toxic concentrations of GEM giving a clear PS increase in low surface PS cells,< 10%
same,surface PS levels,[2],increase surface PS levels
same,Total Deaths,"[3]; 10 mice per group, study to Day 35",0
same,Day 35 TW (mg) ± SEM,[3],936.0 ± 135.1 mg
same,Day 35 TW (mg) ± SEM,[3]; listed as gemcitabine,936.0 mg
same,tolerability,"[3]; mouse, in vivo",well tolerated
same,external PS in viable cells,"[4]; 24 h, varying doses, moderate surface PS cell line",dose-dependent increase
same,TUNEL positive,"[4]; GEM 1 μM, 24 h (CTL=3.6)",21
